What was measured:
LNCaP [1] = test: Antiproliferative activity against human LNCAP cells after 72 hrs by Cell-Titer Glo assay; format: functional, cell-based
LNCaP [2] = test: Potency index, ratio of enzalutamide IC50 to compound IC50 for antiproliferative activity against human LNCAP cells; format: functional
CWR22R [3] = test: Potency index, ratio of enzalutamide IC50 to compound IC50 for antiproliferative activity against human 22Rv1 cells; format: functional
CWR22R [4] = test: Anticlonogenic activity against human 22Rv1 cells after 14 days by crystal violet staining based assay; format: functional, cell-based
LNCaP C4-2B [5] = test: Anticlonogenic activity against human C4-2B cells after 14 days by crystal violet staining based assay; format: functional, cell-based
CWR22R [6] = test: Anticlonogenic activity against human 22Rv1 cells at 4 uM after 14 days by crystal violet staining based assay relative to control; format: functional
LNCaP C4-2B [7] = test: Anticlonogenic activity against human C4-2B cells at 4 uM after 14 days by crystal violet staining based assay relative to control; format: functional
CWR22R [8] = test: cells; conditions: Homo sapiens, 22Rv1, 72 h
Description: (§1) Antiproliferative activity against human 22Rv1 cells after 72 hrs by Cell-Titer Glo assay

CREB-binding protein = CREB-binding protein (Homo sapiens, UniProt Q92793); test: Inhibition of biotinylated-H4KAc4 binding to human His6-tagged CBP (R1081 to G1197 residues) expressed in Escherichia coli BL21(DE3) after 2.5 hrs by luminescence-based AlphaScreen assay
[9] = biological target: Histone acetyltransferase p300 (Homo sapiens, UniProt Q09472); test: Inhibition of biotinylated-H4KAc4 binding to human His6-tagged EP300 (A1040 to G1161 residues) expressed in Escherichia coli BL21(DE3) after 2.5 hrs by luminescence-based AlphaScreen assay
[10] = biological target: T1, Bromodomain-containing protein 4 (Homo sapiens, UniProt O60885); test: Inhibition of biotinylated-H4KAc4 binding to human His6-tagged BRD4 bromodomain-1 (N44 to E168 residues) expressed in Escherichia coli BL21(DE3) after 2.5 hrs by luminescence-based AlphaScreen assay
[11] = biological target: Transcription initiation factor TFIID subunit 1 (Homo sapiens, UniProt P21675); test: Inhibition of biotinylated-H4KAc4 binding to human His6-tagged TAF-1 (R1377 to D1503 residues) expressed in Escherichia coli BL21(DE3) after 2.5 hrs by luminescence-based AlphaScreen assay
[12] = biological target: T2, Bromodomain adjacent to zinc finger domain protein 2B (Homo sapiens, UniProt Q9UIF8); test: Inhibition of biotinylated-H4KAc4 binding to human His6-tagged BAZ2B (S1858 to S1972 residues) expressed in Escherichia coli BL21(DE3) after 2.5 hrs by luminescence-based AlphaScreen assay
[13] = biological target: T3, Bromodomain-containing protein 9 (Homo sapiens, UniProt Q9H8M2); test: Inhibition of biotinylated-H4KAc4 binding to human His6-tagged BRD9 (L14 to Q134 residues) expressed in Escherichia coli BL21(DE3) after 2.5 hrs by luminescence-based AlphaScreen assay
T3 sequence (Q9H8M2 whole entry): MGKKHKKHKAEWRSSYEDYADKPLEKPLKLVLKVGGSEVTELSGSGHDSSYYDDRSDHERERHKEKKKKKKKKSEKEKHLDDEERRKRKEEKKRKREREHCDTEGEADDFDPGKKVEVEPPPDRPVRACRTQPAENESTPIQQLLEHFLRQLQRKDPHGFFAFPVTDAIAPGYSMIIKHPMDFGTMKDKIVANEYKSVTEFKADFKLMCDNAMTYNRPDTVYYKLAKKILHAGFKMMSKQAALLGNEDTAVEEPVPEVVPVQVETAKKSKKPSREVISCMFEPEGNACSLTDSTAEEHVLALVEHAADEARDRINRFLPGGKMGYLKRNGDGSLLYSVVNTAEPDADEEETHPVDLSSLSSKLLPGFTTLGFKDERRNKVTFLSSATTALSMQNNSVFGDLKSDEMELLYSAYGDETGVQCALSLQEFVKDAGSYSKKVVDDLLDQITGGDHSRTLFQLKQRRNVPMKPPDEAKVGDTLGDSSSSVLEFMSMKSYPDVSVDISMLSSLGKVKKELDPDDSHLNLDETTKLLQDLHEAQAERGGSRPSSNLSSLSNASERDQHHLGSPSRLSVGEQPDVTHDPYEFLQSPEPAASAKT

[14] = biological target: T4, Transcription intermediary factor 1-alpha (Homo sapiens, UniProt O15164); test: Inhibition of biotinylated-H4KAc4 binding to human His6-tagged TIF-1 (G896 to E1014 residues) expressed in Escherichia coli BL21(DE3) after 2.5 hrs by luminescence-based AlphaScreen assay
T4 sequence (O15164 whole entry): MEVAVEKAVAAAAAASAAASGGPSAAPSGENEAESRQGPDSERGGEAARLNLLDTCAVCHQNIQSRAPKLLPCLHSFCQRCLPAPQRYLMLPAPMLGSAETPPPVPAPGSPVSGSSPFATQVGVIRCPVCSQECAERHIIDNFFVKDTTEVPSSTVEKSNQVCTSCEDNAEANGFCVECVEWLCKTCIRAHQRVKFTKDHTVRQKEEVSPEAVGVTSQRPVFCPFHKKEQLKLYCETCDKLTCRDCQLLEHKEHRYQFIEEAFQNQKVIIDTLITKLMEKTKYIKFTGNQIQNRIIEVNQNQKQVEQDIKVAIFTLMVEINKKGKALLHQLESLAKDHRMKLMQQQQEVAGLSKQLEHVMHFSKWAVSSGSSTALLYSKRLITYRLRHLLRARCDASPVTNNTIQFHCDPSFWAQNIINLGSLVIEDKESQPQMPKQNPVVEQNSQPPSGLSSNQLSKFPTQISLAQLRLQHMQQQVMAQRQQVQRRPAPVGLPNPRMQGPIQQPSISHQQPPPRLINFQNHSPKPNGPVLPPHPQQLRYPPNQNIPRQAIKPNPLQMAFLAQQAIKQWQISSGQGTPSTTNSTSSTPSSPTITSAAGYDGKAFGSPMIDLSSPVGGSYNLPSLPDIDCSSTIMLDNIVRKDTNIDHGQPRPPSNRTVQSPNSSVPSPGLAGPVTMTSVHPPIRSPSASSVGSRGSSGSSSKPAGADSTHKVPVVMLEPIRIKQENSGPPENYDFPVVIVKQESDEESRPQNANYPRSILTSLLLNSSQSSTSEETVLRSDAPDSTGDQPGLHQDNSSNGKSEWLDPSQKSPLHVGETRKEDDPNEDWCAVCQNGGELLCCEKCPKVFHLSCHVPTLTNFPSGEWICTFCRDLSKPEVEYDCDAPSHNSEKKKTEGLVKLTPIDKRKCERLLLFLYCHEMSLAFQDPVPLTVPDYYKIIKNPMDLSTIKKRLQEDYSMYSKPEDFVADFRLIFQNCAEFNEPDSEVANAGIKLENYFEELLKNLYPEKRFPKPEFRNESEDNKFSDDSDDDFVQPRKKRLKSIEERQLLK

[15] = biological target: Histone acetyltransferase KAT2B (Homo sapiens, UniProt Q92831); test: Inhibition of biotinylated-H4KAc4 binding to human His6-tagged PCAF (G715 to D831 residues) expressed in Escherichia coli BL21(DE3) after 2.5 hrs by luminescence-based AlphaScreen assay
[16] = biological target: T1, Bromodomain-containing protein 4; test: Inhibition of biotinylated-H4KAc4 binding to human His6-tagged BRD4 bromodomain-1 (N44 to E168 residues) expressed in Escherichia coli BL21(DE3) at 50 uM after 2.5 hrs by luminescence-based AlphaScreen assay relative to control
[17] = biological target: T2, Bromodomain adjacent to zinc finger domain protein 2B; test: Inhibition of biotinylated-H4KAc4 binding to human His6-tagged BAZ2B (S1858 to S1972 residues) expressed in Escherichia coli BL21(DE3) at 50 uM after 2.5 hrs by luminescence-based AlphaScreen assay relative to control
CWR22R [18] = test system: CWR22R
Description: as §1

T2 sequence (Q9UIF8 whole entry, the tested form may be a part): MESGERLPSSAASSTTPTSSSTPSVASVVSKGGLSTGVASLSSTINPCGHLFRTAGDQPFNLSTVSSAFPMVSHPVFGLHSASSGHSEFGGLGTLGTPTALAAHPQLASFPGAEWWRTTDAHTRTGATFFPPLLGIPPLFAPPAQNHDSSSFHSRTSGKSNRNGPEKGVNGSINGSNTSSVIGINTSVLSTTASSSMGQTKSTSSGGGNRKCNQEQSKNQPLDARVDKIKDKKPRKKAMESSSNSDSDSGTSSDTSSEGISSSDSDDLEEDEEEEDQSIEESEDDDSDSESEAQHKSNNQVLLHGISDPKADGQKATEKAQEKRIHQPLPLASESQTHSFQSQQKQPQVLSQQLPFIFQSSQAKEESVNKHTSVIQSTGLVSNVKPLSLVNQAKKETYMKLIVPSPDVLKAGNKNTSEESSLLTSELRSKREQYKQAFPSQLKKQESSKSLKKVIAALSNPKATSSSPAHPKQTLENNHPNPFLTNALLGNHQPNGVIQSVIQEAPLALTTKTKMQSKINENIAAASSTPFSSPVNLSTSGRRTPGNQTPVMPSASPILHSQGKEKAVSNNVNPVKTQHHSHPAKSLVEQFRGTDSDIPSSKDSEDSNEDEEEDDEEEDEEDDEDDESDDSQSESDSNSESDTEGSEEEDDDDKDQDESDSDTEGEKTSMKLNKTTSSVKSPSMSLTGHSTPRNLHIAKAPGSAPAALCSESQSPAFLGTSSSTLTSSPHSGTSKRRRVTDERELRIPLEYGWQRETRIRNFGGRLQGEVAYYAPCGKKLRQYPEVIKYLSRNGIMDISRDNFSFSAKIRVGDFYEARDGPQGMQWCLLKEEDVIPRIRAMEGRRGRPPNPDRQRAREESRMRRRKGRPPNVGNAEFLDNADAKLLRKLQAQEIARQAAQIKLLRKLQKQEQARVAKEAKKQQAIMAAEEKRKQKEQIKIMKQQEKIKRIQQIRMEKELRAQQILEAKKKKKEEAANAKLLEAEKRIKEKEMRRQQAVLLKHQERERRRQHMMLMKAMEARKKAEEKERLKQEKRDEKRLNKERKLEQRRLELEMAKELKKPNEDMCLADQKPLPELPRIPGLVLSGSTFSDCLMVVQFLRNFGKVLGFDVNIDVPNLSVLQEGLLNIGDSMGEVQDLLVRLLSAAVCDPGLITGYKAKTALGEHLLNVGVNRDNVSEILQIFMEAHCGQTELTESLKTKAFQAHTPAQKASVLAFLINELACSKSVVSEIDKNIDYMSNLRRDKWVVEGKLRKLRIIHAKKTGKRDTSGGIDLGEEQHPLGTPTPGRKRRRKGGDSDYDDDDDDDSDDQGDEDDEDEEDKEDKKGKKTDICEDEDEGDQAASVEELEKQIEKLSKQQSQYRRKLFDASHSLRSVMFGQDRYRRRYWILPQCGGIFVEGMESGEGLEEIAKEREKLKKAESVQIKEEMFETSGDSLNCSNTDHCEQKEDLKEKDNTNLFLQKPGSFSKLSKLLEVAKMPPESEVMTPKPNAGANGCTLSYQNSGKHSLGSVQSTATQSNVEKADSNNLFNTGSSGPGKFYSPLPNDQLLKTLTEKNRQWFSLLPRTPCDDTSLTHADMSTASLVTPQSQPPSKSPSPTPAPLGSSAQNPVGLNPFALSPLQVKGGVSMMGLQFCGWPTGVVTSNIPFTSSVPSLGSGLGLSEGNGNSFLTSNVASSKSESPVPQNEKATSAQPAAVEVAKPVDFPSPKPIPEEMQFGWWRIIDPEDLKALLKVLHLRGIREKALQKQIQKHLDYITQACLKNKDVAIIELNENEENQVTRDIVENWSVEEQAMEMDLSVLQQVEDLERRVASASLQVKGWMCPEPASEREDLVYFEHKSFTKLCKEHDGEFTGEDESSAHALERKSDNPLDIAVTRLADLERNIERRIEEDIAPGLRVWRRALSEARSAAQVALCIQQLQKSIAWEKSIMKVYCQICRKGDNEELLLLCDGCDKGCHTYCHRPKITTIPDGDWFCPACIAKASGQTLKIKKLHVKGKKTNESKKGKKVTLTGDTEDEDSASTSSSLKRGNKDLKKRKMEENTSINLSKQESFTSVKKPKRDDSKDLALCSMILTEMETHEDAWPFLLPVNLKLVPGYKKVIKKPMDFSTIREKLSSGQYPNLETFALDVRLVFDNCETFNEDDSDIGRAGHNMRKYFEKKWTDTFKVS
Sequence of Transcription initiation factor TFIID subunit 1 (P21675 whole entry, the tested form may be a part): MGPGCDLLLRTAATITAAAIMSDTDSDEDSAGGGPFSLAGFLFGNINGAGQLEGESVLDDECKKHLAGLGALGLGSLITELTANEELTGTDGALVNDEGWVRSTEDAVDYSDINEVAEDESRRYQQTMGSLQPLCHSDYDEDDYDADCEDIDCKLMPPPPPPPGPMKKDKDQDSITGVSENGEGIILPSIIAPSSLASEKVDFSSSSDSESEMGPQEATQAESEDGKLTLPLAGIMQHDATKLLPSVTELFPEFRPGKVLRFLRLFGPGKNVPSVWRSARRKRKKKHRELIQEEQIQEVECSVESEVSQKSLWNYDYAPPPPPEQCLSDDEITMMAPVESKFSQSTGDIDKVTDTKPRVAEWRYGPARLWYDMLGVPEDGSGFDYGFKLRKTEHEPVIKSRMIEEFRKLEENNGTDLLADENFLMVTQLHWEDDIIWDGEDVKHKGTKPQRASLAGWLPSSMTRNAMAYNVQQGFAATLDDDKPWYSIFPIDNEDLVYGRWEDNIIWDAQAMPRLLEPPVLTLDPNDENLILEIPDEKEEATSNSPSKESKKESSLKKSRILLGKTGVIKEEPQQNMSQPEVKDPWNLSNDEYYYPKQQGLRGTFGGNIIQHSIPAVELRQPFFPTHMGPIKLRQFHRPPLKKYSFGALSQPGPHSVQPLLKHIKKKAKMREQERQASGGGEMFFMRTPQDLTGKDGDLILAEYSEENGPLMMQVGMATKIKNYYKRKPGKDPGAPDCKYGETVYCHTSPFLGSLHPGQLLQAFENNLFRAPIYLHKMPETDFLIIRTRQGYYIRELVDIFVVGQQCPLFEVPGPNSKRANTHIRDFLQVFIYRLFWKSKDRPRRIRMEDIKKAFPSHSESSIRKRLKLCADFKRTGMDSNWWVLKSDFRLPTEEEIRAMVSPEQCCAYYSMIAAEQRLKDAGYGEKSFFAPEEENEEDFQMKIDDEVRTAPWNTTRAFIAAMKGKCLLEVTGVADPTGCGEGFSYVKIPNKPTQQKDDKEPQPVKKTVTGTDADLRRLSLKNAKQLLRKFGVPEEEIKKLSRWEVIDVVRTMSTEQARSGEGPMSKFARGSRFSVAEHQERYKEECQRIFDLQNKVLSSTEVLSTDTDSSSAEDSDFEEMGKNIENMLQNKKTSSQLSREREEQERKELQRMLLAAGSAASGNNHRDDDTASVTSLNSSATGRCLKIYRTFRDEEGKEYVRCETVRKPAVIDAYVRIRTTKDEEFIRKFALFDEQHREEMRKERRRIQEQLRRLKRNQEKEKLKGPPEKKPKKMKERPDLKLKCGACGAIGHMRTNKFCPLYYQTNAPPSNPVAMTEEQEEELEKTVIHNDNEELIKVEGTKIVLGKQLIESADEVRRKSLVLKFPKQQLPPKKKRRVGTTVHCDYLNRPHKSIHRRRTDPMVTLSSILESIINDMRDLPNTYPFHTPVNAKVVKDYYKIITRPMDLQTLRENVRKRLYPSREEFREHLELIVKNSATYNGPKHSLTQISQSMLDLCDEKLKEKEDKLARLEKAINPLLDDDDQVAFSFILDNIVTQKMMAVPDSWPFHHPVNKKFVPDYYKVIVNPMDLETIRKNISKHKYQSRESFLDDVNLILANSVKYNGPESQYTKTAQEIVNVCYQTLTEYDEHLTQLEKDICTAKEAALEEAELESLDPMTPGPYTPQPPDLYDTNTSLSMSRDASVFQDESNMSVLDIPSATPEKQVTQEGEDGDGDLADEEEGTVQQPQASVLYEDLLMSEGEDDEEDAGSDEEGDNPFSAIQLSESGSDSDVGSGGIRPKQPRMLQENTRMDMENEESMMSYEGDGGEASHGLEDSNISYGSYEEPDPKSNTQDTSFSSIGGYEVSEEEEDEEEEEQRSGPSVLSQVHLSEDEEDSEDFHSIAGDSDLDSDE
Sequence of Histone acetyltransferase KAT2B (Q92831 whole entry, the tested form may be a part): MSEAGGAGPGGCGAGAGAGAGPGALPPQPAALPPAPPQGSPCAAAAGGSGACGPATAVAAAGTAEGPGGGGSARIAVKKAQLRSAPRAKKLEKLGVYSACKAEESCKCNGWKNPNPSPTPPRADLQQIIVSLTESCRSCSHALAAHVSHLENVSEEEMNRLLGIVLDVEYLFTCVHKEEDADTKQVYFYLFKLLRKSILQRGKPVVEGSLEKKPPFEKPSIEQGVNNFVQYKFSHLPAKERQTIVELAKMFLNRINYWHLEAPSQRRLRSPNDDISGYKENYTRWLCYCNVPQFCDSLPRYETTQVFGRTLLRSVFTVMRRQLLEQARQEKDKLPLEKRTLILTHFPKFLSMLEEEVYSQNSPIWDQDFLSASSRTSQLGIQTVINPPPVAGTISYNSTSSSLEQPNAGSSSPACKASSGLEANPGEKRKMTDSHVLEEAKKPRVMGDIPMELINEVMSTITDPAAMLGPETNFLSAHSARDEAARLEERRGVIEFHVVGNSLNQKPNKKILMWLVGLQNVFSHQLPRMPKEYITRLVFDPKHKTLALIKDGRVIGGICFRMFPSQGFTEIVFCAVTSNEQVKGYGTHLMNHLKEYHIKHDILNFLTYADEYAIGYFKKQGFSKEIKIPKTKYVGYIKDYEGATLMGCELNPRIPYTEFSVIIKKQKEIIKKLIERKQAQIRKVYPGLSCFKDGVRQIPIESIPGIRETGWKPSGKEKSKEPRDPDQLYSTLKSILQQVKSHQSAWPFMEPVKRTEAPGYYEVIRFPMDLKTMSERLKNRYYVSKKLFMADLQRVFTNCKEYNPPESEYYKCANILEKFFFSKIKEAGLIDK

Row | Compound | IC50 (LNCaP [1]; Homo sapiens, LNCaP, 72 h, read-out: IC50) [µM] | IC50 (CWR22R [8]) [µM] | IC50 (CREB-binding protein) [µM] | IC50 [9] [µM] | IC50 [10] [µM] | IC50 [11] [µM] | IC50 [12] [µM] | IC50 [13] [µM] | IC50 [14] [µM] | IC50 [15] [µM] | inhibition [16] [%] | inhibition [17] [%] | IC50 (LNCaP [1]; lncap) | IC50 (CWR22R [18]) | Ratio IC50 (LNCaP [2]) | Ratio IC50 (CWR22R [3]) | Activity (CWR22R [4]) | Activity (LNCaP C4-2B [5]) | Activity (CWR22R [6]) [%] | Activity (LNCaP C4-2B [7]) [%]
1 | COc1ccc2c(c1)c(C(=O)Nc1cc(C(=O)OC(C)(C)C)cc(-c3cnn(C)c3)c1)cn2C(C)=O | 1.28 | 2.22 |  |  |  |  |  |  |  |  |  |  |  |  | 17 | 17 | Dose-dependent effect | Dose-dependent effect | <10 | <10
2 | CC(=O)n1cc(C(=O)Nc2cccc(C(=O)O)c2)c2ccccc21 |  |  | 1.69 | 5.55 | > 20 | > 20 | > 20 | > 20 | > 20 | > 20 |  |  |  |  |  |  |  |  |  | 
3 | COc1ccc(CCc2nc3cc(-c4c(C)noc4C)ccc3n2C[C@H](C)N2CCOCC2)cc1Cl |  |  |  |  | > 20 | > 20 | > 20 | > 20 | > 20 | > 20 | 62 | 41 | Not Active | Not Active |  |  |  |  |  | 

The next lines start with results.

Row | IC50 (LNCaP [1]; Homo sapiens, LNCaP, 72 h, read-out: IC50) [µM] | IC50 (CWR22R [8]) [µM] | IC50 (CREB-binding protein) [µM] | IC50 [9] [µM] | IC50 [10] [µM] | IC50 [11] [µM] | IC50 [12] [µM] | IC50 [13] [µM] | IC50 [14] [µM] | IC50 [15] [µM] | inhibition [16] [%] | inhibition [17] [%] | IC50 (LNCaP [1]; lncap) | IC50 (CWR22R [18]) | Compound | Ratio IC50 (LNCaP [2]) | Ratio IC50 (CWR22R [3]) | Activity (CWR22R [4]) | Activity (LNCaP C4-2B [5]) | Activity (CWR22R [6]) [%] | Activity (LNCaP C4-2B [7]) [%]
4 |  |  | 0.65 | 0.97 | 2.19 | > 20 | 1.69 | > 20 | 10.4 | > 20 |  |  |  |  | CC(=O)n1cc(C(=O)Nc2cc(C(=O)O)cc(-c3ccco3)c2)c2ccccc21 |  |  |  |  |  | 
5 |  |  | 0.77 | 4.45 | > 20 | > 20 | > 20 | > 20 | > 20 | > 20 |  |  |  |  | CC(=O)n1cc(C(=O)Nc2cc(C(=O)O)ccc2F)c2ccccc21 |  |  |  |  |  | 

From ChEMBL document CHEMBL4145544, “Discovery and optimization of 1-(1H-indol-1-yl)ethanone derivatives as CBP/EP300 bromodomain inhibitors for the treatment of castration-resistant prostate cancer” (Eur J Med Chem, 2018)
